Data published in patent publication US20250249001A1, “METHODS OF TREATING SUBSTANCE USE DISORDER WITH 4-(3-CYANOPHENYL)-6-PYRIDINYLPYRIMIDINE MGLU5 NEGATIVE ALLOSTERIC MODULATORS” (Tempero Bio, Inc., priority 2022, published 2025).
Like-named read-outs stand apart in the source and are kept apart here.

How the values were obtained:
[1] = system: oxycodone self-administration in rats; assay: Intravenous oxycodone self-administration, fixed ratio FR3; format: in vivo, Sprague-Dawley rats; details: for oxycodone self-administration, Mean Diff., Vehicle vs. treatment: FR3
Experimental: Animals. Adult male Sprague-Dawley rats (300-325 g at arrival) from Envigo (Indiana, USA) were used. Upon arrival, rats were single housed in standard cages with filter tops, and they were acclimated for at least 7 days before any treatment. All rats were examined and handled prior to initiation of the study. During the study, 12 h/12 h light/dark cycles were maintained. The room temperature was 21-23° C. with a relative humidity maintained at 30-70%. Water was provided ad libitum for the duration of the study.
Test Article(s) • Oxycodone (0.05 mg/kg/infusion; Sigma-Aldrich, USA) was dissolved in saline and infused at a rate of 0.1 ml/infusion. • Compound 1 (0.3, 1, and 3 mg/kg) was formulated in 10% Solutol HS15+90% (10% aqueous hydroxypropyl)-β-cyclodextrin and injected IP 30 minutes prior to test at a dose volume of 2 ml/kg. In the reinstatement study only 3 mg/kg was used. • MTEP (3-((2-Methyl-4-thiazolyl)ethynyl)pyridine; 3 mg/kg), was dissolved in saline and injected IP 30 minutes prior to testing at a dose volume of 2 ml/kg.
Apparatus. Intravenous drug self-administration took place in experimental chambers within sound-attenuating cubicles equipped with an exhaust fan (Med Associates, VT). Each chamber contains two response levers situated on one wall of the chamber. A stimulus light was located above each lever and a house light was located at the top of the opposite wall. A pellet receptacle was situated between the two levers for delivery of food pellets (Bio-Serv's Dustless Precision Pellets #F0165, 45 mg). An infusion pump mounted above each chamber delivers drug solutions via Tygon tubing connected to a single channel fluid swivel, which was mounted on a balance arm above the operant chamber. The output of the liquid swivel was attached to the externalized terminus of the intravenous catheter.
Surgery and catheter maintenance: The rats were first implanted with jugular vein catheters (Access Technologies, USA). After the surgery, catheters were flushed daily with 0.2 ml of heparin-Enrofloxacin solution to avoid clogging and to ensure smooth drug infusion. The flushing liquid was made in 50 ml volume units which contained 1500 U Heparin and 320 mg Enrofloxacin (Baytril®). The solution was stored in sterilized vials in a 4° C. refrigerator. After the rats recovered from catheterization surgery, they were food-restricted (about 15 or 20 g/day) and maintained at ˜85% of their free-feeding, age-matched control body weight throughout the study. Starting from the 3rd day of food restriction, rats were trained to press the active lever (one of the two levers) to obtain food. During the study, Methohexital sodium (Brevital®, Henry Schein Animal Health, USA) was used twice for catheter evaluation and thereby for indirect infusion confirmation. Brevital is a short-acting barbiturate that, when infused through the catheter, produces overt signs of sedation within seconds. […] The rats were first implanted with jugular vein catheters (Access Technologies, USA). After the surgery, catheters were flushed daily with 0.2 ml of heparin-Enrofloxacin solution to avoid clogging and to ensure smooth drug infusion. The flushing liquid was made in 50 ml volume units which contained 1500 U Heparin and 320 mg Enrofloxacin (Baytril®). The solution was stored in sterilized vials in a 4° C. refrigerator. After the rats recovered from catheterization surgery, they were food-restricted (about 15 or 20 g/day) and maintained at ˜85% of their free-feeding, age-matched control body weight throughout the study. Starting from the 3rd day of food restriction, rats were trained to press the active lever (one of the two levers) to obtain food. During the study, Methohexital sodium (Brevital®, Henry Schein Animal Health, USA) was used a few times for catheter evaluation and thereby for indirect infusion confirmation. Brevital is a short-acting barbiturate that, when infused through the catheter, produces overt signs of sedation within seconds. […]

[2] = system: cocaine self-administration in rats
[3] = system: cocaine reinstatement in rats; assay: Yohimbine-induced reinstatement of cocaine self-administration (Stage II); format: in vivo, Sprague-Dawley rats; details: for cocaine reinstatement, Mean Diff., Last Day of Cocaine Retraining vs treatment - Yohimbine / cocaine reinstatement, Mean Diff., Last Day of Extinction vs. treatment - Yohimbine / cocaine reinstatement, Mean Diff., Saline - Yohimbine 2 mg/kg vs. treatment - Yohimbine: 3 mg/kg, thirty min before yohimbine 2 mg/kg
Experimental: After completion of Stage I, the rats were re-trained with cocaine for one week to ensure stable baseline. And then the rats underwent a 6-day extinction training procedure in which only saline infusion occurred when active lever was pressed. Meanwhile, the rats were divided into 3 roughly even groups for pharmacological stressor-induced reinstatement—All rats received one injection of alpha-2 adrenergic antagonist yohimbine (2 mg/kg) and then placed into the training box immediately). Thirty min before yohimbine treatment, one group of rats received saline, another group received MTEP 3 mg/kg injection, and the 3rd group received Compound 1 at 3 mg/kg.
Yohimbine-induced reinstatement was re-tested two more times in the same rats 3 days and 6 days after the first test, under continuous extinction procedure (There were 2 more days of extinction training between the 1st and 2nd reinstatement test, and between the 2nd and 3rd reinstatement test). Using the 3×3 within subject design, each given animal goes through all three treatments (saline, MTEP and Compound 1) across the three rounds of test.
A one-way mixed-effects model (REML) of ANOVA followed by Dunnett's post hoc tests were used to analyze efficacy of Compound 1 and MTEP on cocaine self-administration in stages I (The repeated measure ANOVA was not totally applicable due to a few outlier data points, which are removed), and one-way mixed-effects model (REML) of ANOVA followed by Tukey's post hoc tests were used in Stage II. An effect was considered significant if P<0.05. Data were represented as the mean and standard error to the mean (s.e.m).
Statistical outliers which exceeded mean +/− (2× standard deviation) of the group were removed from the analysis. Also, for reinstatement, the extinction time was shortened (from 9 days plus extension as option to 6 days). In the present study, 3 rounds of reinstatement tests were performed, and we wished to maintain the reinstatement power, thus we cut extinction duration. Accordingly, we loosened the extinction criterion from 6 or less infusions to 9 or less infusions during the last extinction session. With this criterion, 17 out of 21 rats were eligible in drug test in Stage II.

[4] = system: cocaine reinstatement in rats; assay: as above; format: in vivo, Sprague-Dawley rats; details: 3 mg/kg co-administered with yohimbine 2 mg/kg; Ps<0.001
[5] = 3 mg/kg IP 30 minutes prior to test
[6] = 3 mg/kg IP, FR5, 1 hour session

SMILES | self-administered oxycodone infusion vs vehicle treatment ([1]; 3 mg/kg IP) | oxycodone self-administration, Mean Diff., Vehicle vs. treatment [1, 5] | cocaine infusion vs saline treatment ([2]; 3 mg/kg IP) | cocaine self-administration, Mean Diff., Saline vs. treatment [2, 6] | cocaine reinstatement, Mean Diff., Last Day of Cocaine Retraining vs treatment - Yohimbine [3] | cocaine reinstatement, Mean Diff., Last Day of Extinction vs. treatment - Yohimbine [3] | cocaine reinstatement, Mean Diff., Saline - Yohimbine 2 mg/kg vs. treatment - Yohimbine [3] | yohimbine-induced cocaine reinstatement [4] | oxycodone self-administration, Mean Diff., Vehicle vs. treatment ([1]; 0.3 mg/kg IP 30 minutes prior to test) | oxycodone self-administration, Mean Diff., Vehicle vs. treatment ([1]; 1 mg/kg IP 30 minutes prior to test) | oxycodone self-administration vs vehicle ([1]; all three doses, 0.3, 1 and 3 mg/kg IP) | cocaine self-administration, Mean Diff., Saline vs. treatment ([2]; 1 mg/kg IP 30 min before testing, FR5) | cocaine self-administration, Mean Diff., Saline vs. treatment ([2]; 10 mg/kg IP 30 min before testing, FR5) | cocaine self-administration vs saline treatment ([2]; all three doses, 1, 3 and 10 mg/kg IP) | cocaine reinstatement, Mean Diff., MTEP 3 mg/kg - Yohimbine vs. Compound 1 (3 mg/kg) - Yohimbine ([3]; both 3 mg/kg before yohimbine 2 mg/kg)
Cc1nc(C#Cc2cccnc2)cs1 [MTEP, 3-((2-Methyl-4-thiazolyl)ethynyl)pyridine] | significantly decreased self-administered oxycodone infusion | 7.188 | significantly decreased cocaine infusion | 19.93 | 26.71 | 5.882 | 20.41 | almost entirely prevented cocaine reinstatement |  |  |  |  |  |  | 
N#Cc1cc(Cl)cc(-c2cc(-c3ccc(F)cn3)ncn2)c1 [Compound 1, 3-chloro-5-[6-(5-fluoropyridin-2-yl)pyrimidin-4-yl]benzonitrile] |  | 9.483 |  | 24.3 | 26.57 | 5.749 | 20.28 | almost entirely prevented cocaine reinstatement | 5.438 | 6.283 | significantly attenuated oxycodone self-administration | 15.73 | 27.07 | significantly attenuate cocaine self-administration | −0.1333
